Test results as given in the kinase profiling compilation of Christmann-Franck et al. (2016).

Assays:
Experiment in all cases: radiometric filter-binding kinase assay
CHEK1 (human) = CHEK1 (human) (UniProt O14757)
LCK (mouse) = settings: accession and sequence are those of the human protein
CSNK2A1 (human) = CSNK2A1 (human) (UniProt P68400)
PIM3 (human) = PIM3 (human) (UniProt Q86V86)
PHKG1 (human) = PHKG1 (human) (UniProt Q16816)
MINK1 (human) = MINK1 (human) (UniProt Q8N4C8)
[1] = system: SGK1 (human), O00141 [S422D]
HIPK1 (human) = HIPK1 (human) (UniProt Q86Z02)
AURKB (human) = AURKB (human) (UniProt Q96GD4)
MAPK11 (human) = MAPK11 (human) (UniProt Q15759)
FGFR1 (human) = FGFR1 (human) (UniProt P11362)
SRPK1 (human) = SRPK1 (human) (UniProt Q96SB4)
MAPK10 (human) = MAPK10 (human) (UniProt P53779)
MAPKAPK5 (human) = MAPKAPK5 (human) (UniProt Q8IW41)
STK3 (human) = STK3 (human) (UniProt Q13188)
TBK1 (human) = TBK1 (human) (UniProt Q9UHD2)
HIPK2 (human) = HIPK2 (human) (UniProt Q9H2X6)
GCK (human) = GCK (human) (UniProt Q12851)
DYRK1A (human) = DYRK1A (human) (UniProt Q13627)
IGF1R (human) = IGF1R (human) (UniProt P08069)
MARK3 (human) = MARK3 (human) (UniProt P27448)
YES1 (human) = YES1 (human) (UniProt P07947)
CAMKK2 (human) = CAMKK2 (human) (UniProt Q96RR4)
MKNK1 (human) = MKNK1 (human) (UniProt Q9BUB5)
MAPK8 (human) = MAPK8 (human) (UniProt P45983)
DYRK3 (human) = DYRK3 (human) (UniProt O43781)
JAK2 JH1 JH2 (human) = JAK2 JH1 JH2 (human) (UniProt O60674)
[2] = system: PAK2 (human), Q13177 [T402E]
TAOK1 (human) = TAOK1 (human) (UniProt Q7L7X3)
EPHB2 (human) = EPHB2 (human) (UniProt P29323)
CLK2 (human) = CLK2 (human) (UniProt P49760)
BRSK2 (human) = BRSK2 (human) (UniProt Q8IWQ3)
CaMK1 (human) = CaMK1 (human) (UniProt Q14012)
ROCK2 (rat) = settings: accession and sequence are those of the human protein
DAPK1 (human) = DAPK1 (human) (UniProt P53355)
MAPK13 (human) = MAPK13 (human) (UniProt O15264)

EPHB2 (human), sequence (P29323 whole entry, looked up): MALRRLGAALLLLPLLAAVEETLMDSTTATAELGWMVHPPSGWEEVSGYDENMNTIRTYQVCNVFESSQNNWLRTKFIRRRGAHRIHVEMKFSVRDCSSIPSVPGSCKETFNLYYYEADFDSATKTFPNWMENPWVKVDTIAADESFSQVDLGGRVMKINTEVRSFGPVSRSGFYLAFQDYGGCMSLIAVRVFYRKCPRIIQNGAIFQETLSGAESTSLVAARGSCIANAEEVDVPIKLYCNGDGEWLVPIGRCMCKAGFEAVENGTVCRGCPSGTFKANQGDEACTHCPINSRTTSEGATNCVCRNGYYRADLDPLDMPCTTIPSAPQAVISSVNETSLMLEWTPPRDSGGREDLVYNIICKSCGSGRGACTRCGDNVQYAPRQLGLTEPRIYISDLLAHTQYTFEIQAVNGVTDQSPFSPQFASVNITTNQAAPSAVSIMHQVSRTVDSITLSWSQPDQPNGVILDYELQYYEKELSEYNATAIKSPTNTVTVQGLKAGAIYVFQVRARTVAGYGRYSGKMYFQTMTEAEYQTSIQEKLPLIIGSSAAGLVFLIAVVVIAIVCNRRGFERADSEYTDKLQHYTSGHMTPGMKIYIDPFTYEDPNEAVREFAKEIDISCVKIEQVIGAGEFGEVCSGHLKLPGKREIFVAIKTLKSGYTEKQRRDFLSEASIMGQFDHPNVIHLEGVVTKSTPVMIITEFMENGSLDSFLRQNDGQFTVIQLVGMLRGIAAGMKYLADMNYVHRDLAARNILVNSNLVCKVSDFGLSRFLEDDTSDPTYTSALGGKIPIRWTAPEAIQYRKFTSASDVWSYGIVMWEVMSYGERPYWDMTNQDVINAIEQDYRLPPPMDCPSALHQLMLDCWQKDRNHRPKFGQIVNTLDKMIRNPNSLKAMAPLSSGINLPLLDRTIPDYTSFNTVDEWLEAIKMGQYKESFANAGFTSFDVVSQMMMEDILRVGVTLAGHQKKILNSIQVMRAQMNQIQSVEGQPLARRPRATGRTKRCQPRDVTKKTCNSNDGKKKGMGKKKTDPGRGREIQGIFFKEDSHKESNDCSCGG
STK3 (human), sequence (Q13188 whole entry, looked up): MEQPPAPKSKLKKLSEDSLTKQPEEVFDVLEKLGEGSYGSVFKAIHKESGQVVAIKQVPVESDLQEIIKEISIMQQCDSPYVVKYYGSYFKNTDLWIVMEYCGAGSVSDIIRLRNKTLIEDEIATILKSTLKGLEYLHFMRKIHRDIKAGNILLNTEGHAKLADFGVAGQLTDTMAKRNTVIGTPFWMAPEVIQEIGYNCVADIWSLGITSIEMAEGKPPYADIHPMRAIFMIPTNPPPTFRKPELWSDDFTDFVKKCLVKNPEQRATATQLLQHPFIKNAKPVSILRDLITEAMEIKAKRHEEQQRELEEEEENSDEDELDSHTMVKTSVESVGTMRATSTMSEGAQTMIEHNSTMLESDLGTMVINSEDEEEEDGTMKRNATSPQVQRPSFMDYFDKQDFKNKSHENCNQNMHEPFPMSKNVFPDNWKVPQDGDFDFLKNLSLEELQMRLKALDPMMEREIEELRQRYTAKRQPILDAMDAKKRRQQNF
MAPK10 (human), sequence (P53779 whole entry, looked up): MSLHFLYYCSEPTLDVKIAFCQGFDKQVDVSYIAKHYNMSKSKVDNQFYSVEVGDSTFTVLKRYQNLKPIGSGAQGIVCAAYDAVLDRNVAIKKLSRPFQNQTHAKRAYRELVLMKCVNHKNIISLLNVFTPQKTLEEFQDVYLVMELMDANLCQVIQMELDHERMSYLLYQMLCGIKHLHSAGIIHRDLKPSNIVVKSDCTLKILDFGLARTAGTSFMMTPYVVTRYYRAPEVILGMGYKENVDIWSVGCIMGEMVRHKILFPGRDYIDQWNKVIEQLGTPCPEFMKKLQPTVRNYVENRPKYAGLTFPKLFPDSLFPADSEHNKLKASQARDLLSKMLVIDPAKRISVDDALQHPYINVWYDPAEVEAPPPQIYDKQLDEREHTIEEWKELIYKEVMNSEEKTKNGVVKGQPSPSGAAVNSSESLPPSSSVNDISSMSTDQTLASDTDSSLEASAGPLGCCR
SGK1 (human), O00141 [S422D], sequence (O00141 whole entry S422D, looked up): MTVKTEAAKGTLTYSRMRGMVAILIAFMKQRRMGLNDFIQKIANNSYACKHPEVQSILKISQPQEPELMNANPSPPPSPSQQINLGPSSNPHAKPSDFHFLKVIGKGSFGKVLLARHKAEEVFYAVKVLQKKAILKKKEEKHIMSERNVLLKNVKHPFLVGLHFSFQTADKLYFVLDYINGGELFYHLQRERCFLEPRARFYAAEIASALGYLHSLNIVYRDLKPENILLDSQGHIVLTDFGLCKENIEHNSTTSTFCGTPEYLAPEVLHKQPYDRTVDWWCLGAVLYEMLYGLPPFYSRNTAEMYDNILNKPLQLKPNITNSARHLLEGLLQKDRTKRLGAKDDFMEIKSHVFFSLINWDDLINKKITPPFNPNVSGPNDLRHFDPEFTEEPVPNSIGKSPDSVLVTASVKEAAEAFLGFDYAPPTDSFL
CHEK1 (human), sequence (O14757 whole entry, looked up): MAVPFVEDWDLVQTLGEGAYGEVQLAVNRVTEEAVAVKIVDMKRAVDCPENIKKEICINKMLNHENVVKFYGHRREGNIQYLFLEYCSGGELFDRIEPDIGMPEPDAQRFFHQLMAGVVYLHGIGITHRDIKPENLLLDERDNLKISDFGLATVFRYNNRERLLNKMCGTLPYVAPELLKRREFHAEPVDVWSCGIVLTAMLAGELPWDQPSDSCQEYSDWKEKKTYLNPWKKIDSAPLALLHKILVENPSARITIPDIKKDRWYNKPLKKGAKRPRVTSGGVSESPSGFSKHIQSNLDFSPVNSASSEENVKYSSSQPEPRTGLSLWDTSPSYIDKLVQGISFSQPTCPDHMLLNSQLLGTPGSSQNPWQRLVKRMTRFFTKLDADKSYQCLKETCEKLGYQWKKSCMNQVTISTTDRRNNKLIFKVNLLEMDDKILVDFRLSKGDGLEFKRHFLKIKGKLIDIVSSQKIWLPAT
TAOK1 (human), sequence (Q7L7X3 whole entry, looked up): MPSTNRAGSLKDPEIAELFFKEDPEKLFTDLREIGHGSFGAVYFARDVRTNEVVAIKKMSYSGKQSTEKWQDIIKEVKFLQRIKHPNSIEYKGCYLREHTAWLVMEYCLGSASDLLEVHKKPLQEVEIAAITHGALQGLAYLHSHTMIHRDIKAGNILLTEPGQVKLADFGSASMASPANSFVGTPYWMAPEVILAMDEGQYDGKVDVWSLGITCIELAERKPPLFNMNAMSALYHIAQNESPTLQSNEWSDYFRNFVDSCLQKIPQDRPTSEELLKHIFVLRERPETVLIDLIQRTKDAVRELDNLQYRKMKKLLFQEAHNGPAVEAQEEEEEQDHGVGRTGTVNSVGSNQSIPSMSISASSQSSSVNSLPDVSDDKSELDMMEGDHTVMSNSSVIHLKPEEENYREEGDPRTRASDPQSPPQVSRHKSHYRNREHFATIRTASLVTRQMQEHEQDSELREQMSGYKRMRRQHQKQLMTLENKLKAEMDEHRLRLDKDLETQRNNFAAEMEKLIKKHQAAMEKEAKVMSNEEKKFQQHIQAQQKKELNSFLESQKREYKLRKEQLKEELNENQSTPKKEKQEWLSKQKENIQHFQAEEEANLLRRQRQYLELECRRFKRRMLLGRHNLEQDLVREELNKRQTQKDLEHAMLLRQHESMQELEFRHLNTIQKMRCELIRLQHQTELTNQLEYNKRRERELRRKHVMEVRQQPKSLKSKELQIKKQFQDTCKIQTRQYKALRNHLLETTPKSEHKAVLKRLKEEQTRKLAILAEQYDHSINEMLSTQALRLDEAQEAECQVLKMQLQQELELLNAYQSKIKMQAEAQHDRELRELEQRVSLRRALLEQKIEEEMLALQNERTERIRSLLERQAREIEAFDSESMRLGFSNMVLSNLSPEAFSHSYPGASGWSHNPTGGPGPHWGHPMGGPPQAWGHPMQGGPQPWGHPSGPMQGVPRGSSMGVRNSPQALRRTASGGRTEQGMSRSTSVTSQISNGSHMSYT
MKNK1 (human), sequence (Q9BUB5 whole entry, looked up): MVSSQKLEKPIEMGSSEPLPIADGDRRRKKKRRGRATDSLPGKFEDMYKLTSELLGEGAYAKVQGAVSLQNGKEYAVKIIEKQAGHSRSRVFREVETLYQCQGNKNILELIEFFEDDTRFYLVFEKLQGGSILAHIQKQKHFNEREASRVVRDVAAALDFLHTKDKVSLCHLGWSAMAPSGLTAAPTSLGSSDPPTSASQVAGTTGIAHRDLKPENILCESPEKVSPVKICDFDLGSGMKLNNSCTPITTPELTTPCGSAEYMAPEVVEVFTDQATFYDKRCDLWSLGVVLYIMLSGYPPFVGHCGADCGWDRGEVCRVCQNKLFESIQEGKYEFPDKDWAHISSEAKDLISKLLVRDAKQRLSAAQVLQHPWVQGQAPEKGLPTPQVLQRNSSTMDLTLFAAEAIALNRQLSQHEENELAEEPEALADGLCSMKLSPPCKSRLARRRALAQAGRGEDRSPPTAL

CCCCCc1ccc(/C=C/[C@H](O)[C@@H](CO)NC)cc1
residual activity (CHEK1 (human); compound 0.1 µM): 96% | residual activity (CHEK1 (human); compound 1.0 µM): 92% | residual activity (CHEK1 (human); compound 10.0 µM): 86% | residual activity (LCK (mouse); compound 0.1 µM): 106% | residual activity (LCK (mouse); compound 1.0 µM): 92% | residual activity (LCK (mouse); compound 10.0 µM): 84% | residual activity (CSNK2A1 (human); compound 0.1 µM): 78% | residual activity (CSNK2A1 (human); compound 1.0 µM): 87% | residual activity (CSNK2A1 (human); compound 10.0 µM): 83% | residual activity (PIM3 (human); compound 0.1 µM): 118% | residual activity (PIM3 (human); compound 1.0 µM): 121% | residual activity (PIM3 (human); compound 10.0 µM): 107% | residual activity (PHKG1 (human); compound 0.1 µM): 99% | residual activity (PHKG1 (human); compound 1.0 µM): 86% | residual activity (PHKG1 (human); compound 10.0 µM): 76% | residual activity (MINK1 (human); compound 0.1 µM): 107% | residual activity (MINK1 (human); compound 1.0 µM): 93% | residual activity (MINK1 (human); compound 10.0 µM): 111% | residual activity ([1]; compound 0.1 µM): 83% | residual activity ([1]; compound 1.0 µM): 87% | residual activity ([1]; compound 10.0 µM): 78% | residual activity (HIPK1 (human); compound 0.1 µM): 92% | residual activity (HIPK1 (human); compound 1.0 µM): 112% | residual activity (HIPK1 (human); compound 10.0 µM): 94% | residual activity (AURKB (human); compound 0.1 µM): 100% | residual activity (AURKB (human); compound 1.0 µM): 102% | residual activity (AURKB (human); compound 10.0 µM): 93% | residual activity (MAPK11 (human); compound 0.1 µM): 99% | residual activity (MAPK11 (human); compound 1.0 µM): 106% | residual activity (MAPK11 (human); compound 10.0 µM): 95% | residual activity (FGFR1 (human); compound 0.1 µM): 115% | residual activity (FGFR1 (human); compound 1.0 µM): 111% | residual activity (FGFR1 (human); compound 10.0 µM): 104% | residual activity (SRPK1 (human); compound 0.1 µM): 92% | residual activity (SRPK1 (human); compound 1.0 µM): 89% | residual activity (SRPK1 (human); compound 10.0 µM): 83% | residual activity (MAPK10 (human); compound 0.1 µM): 93% | residual activity (MAPK10 (human); compound 1.0 µM): 103% | residual activity (MAPK10 (human); compound 10.0 µM): 98% | residual activity (MAPKAPK5 (human); compound 0.1 µM): 89% | residual activity (MAPKAPK5 (human); compound 1.0 µM): 99% | residual activity (MAPKAPK5 (human); compound 10.0 µM): 90% | residual activity (STK3 (human); compound 0.1 µM): 96% | residual activity (STK3 (human); compound 1.0 µM): 90% | residual activity (STK3 (human); compound 10.0 µM): 94% | residual activity (TBK1 (human); compound 0.1 µM): 111% | residual activity (TBK1 (human); compound 10.0 µM): 93% | residual activity (HIPK2 (human); compound 0.1 µM): 108% | residual activity (HIPK2 (human); compound 1.0 µM): 106% | residual activity (HIPK2 (human); compound 10.0 µM): 106% | residual activity (GCK (human); compound 0.1 µM): 86% | residual activity (GCK (human); compound 1.0 µM): 72% | residual activity (GCK (human); compound 10.0 µM): 71% | residual activity (DYRK1A (human); compound 0.1 µM): 83% | residual activity (DYRK1A (human); compound 1.0 µM): 91% | residual activity (DYRK1A (human); compound 10.0 µM): 84% | residual activity (IGF1R (human); compound 0.1 µM): 87% | residual activity (IGF1R (human); compound 1.0 µM): 86% | residual activity (IGF1R (human); compound 10.0 µM): 93% | residual activity (MARK3 (human); compound 0.1 µM): 101% | residual activity (MARK3 (human); compound 1.0 µM): 107% | residual activity (MARK3 (human); compound 10.0 µM): 105% | residual activity (YES1 (human); compound 0.1 µM): 123% | residual activity (YES1 (human); compound 1.0 µM): 100% | residual activity (YES1 (human); compound 10.0 µM): 109% | residual activity (CAMKK2 (human); compound 0.1 µM): 97% | residual activity (CAMKK2 (human); compound 1.0 µM): 81% | residual activity (CAMKK2 (human); compound 10.0 µM): 90% | residual activity (MKNK1 (human); compound 0.1 µM): 101% | residual activity (MKNK1 (human); compound 1.0 µM): 92% | residual activity (MKNK1 (human); compound 10.0 µM): 93% | residual activity (MAPK8 (human); compound 0.1 µM): 98% | residual activity (MAPK8 (human); compound 1.0 µM): 94% | residual activity (DYRK3 (human); compound 0.1 µM): 93% | residual activity (DYRK3 (human); compound 1.0 µM): 98% | residual activity (DYRK3 (human); compound 10.0 µM): 93% | residual activity (JAK2 JH1 JH2 (human); compound 0.1 µM): 118% | residual activity (JAK2 JH1 JH2 (human); compound 1.0 µM): 98% | residual activity (JAK2 JH1 JH2 (human); compound 10.0 µM): 100% | residual activity ([2]; compound 0.1 µM): 113% | residual activity ([2]; compound 1.0 µM): 103% | residual activity ([2]; compound 10.0 µM): 113% | residual activity (TAOK1 (human); compound 0.1 µM): 102% | residual activity (TAOK1 (human); compound 1.0 µM): 108% | residual activity (TAOK1 (human); compound 10.0 µM): 91% | residual activity (EPHB2 (human); compound 0.1 µM): 115% | residual activity (EPHB2 (human); compound 1.0 µM): 105% | residual activity (EPHB2 (human); compound 10.0 µM): 108% | residual activity (CLK2 (human); compound 0.1 µM): 106% | residual activity (CLK2 (human); compound 1.0 µM): 104% | residual activity (CLK2 (human); compound 10.0 µM): 97% | residual activity (BRSK2 (human); compound 0.1 µM): 130% | residual activity (BRSK2 (human); compound 1.0 µM): 108% | residual activity (BRSK2 (human); compound 10.0 µM): 108% | residual activity (CaMK1 (human); compound 0.1 µM): 106% | residual activity (CaMK1 (human); compound 1.0 µM): 101% | residual activity (CaMK1 (human); compound 10.0 µM): 89% | residual activity (ROCK2 (rat); compound 0.1 µM): 110% | residual activity (ROCK2 (rat); compound 1.0 µM): 94% | residual activity (ROCK2 (rat); compound 10.0 µM): 116% | residual activity (DAPK1 (human); compound 0.1 µM): 109% | residual activity (DAPK1 (human); compound 1.0 µM): 101% | residual activity (DAPK1 (human); compound 10.0 µM): 103% | residual activity (MAPK13 (human); compound 0.1 µM): 90% | residual activity (MAPK13 (human); compound 1.0 µM): 99% | residual activity (MAPK13 (human); compound 10.0 µM): 90%
